Assay results as given in ChEMBL document CHEMBL1133423, “Synthesis, DNA binding, topoisomerases inhibition and cytotoxic properties of 4-arylcarboxamidopyrrolo-2-carboxyanilides” (Bioorg Med Chem Lett, 2000).

Experiments:
Nucleic Acid = assay: Binding affinity of compound for calf thymus DNA was determined; assay type: nucleic-acid assay; conditions: Bos taurus
HL-60 = assay: Antiproliferative activity of compound against HL60 leukemia cells; assay type: functional, cell-based; conditions: Homo sapiens

Ka (Nucleic Acid) [M⁻¹] | IC50 (HL-60) [µM] | SMILES
340000 | 8.2 | NCc1ccc(NC(=O)c2cc(NC(=O)c3ccc(CN)cc3)cn2Cc2ccccc2)cc1
680000 | 5.4 | Cn1cc(NC(=O)c2ccc(CN)cc2)cc1C(=O)Nc1ccc(CN)cc1
950000 | 1.7 | NCc1ccc(NC(=O)c2cc(NC(=O)c3ccc(CN)cc3)c[nH]2)cc1
